# Measured values from US10196393B2, “JAK inhibitors containing a 4-membered heterocyclic amide” (THERAVANCE BIOPHARMA R&D IP, LLC, priority 2017, dated 2019).
# Where two headings read alike, the source gives them in different places.
# How the values were obtained:
# [1] = system: IL-5 mediated eosinophil survival in human eosinophils; assay: IL-5 mediated eosinophil survival assay; format: cell-based; settings: 72 h, read-out: pIC50, IL-5 mediated eosinophil survival (converted)
# Procedure: Assay 6: IL-5 Mediated Eosinophil Survival Assay
# The potency of the test compound for IL-5 mediated eosinophil survival was measured in human eosinophils isolated from human whole blood (AllCells). Because IL-5 signals through JAK, this assay provides a measure of JAK cellular potency.
# Human eosinophils were isolated from fresh human whole blood (AllCells) of healthy donors. Blood was mixed with 4.5% Dextran (Sigma-Aldrich) in a 0.9% sodium chloride solution (Sigma-Aldrich). Red blood cells were left to sediment for 35 minutes. The leukocyte rich upper layer was removed and layered over Ficoll-Paque (GE Healthcare) and centrifuged at 600 g for 30 minutes. The plasma and mononuclear cell layers were removed before the granulocyte layer was lysed with water to remove any contaminating red blood cells. […] Purity was analyzed using a LSRII flow cytometer (BD Biosciences). […]
# After cytokine stimulation, cells were centrifuged at 300 g for 5 min and washed twice with cold DPBS (Life Technologies). To access viability and apoptosis, cells were incubated with Propidium Iodide (Thermo Fisher Scientific) and APC Annexin V (BD Biosciences) and analyzed using a LSRII flow cytometer (BD Biosciences). IC50 values were determined from analysis of the viability curves of percent cell viability vs compound concentration. Data are expressed as pIC50 (negative decadic logarithm IC50) values.
# [2] = system: IL-27 induced CXCL10 and CXCL9 secretion in EpiAirway tissue cultures; assay: Inhibition of IL-27 induced chemokines CXCL9 and CXCL10 in human 3D airway cultures; format: cell-based; settings: 192 h, Day 8, ±STDV
# Procedure: Assay 7: Inhibition of IFNγ and IL-27 Induced Chemokines CXCL9 and CXCL10 in Human 3D Airway Cultures
# EpiAirway tissue cultures were obtained from Mattek (AIR-100). Cultures were derived from asthmatic donors. In a cell culture insert, human derived tracheal/bronchial epithelial cells were grown and differentiated on a porous membrane support, allowing an air-liquid interface with warmed culture medium below the cells and a gaseous test atmosphere above. Tissues were cultured in maintenance media (Mattek, AIR-100-MM) in a 37° C., 5% CO2 humidified incubator. Four donors were tested. On Day 0, tissue cultures were treated with test compounds at 10 μM, 1 μM and/or 0.1 μM. Compounds were diluted in dimethyl sulfoxide (DMSO, Sigma) to a final concentration of 0.1%. DMSO at 0.1% was used as a vehicle control. Test compounds were incubated with cultures for 1 hour at 37° C., 5% CO2, followed by the addition of pre-warmed media containing IFNγ (R&D Systems) or IL-27 (R&D Systems) at a final concentration at 100 ng/ml. Tissue cultures were maintained for 8 days. Media was replaced every 2 days with fresh media containing compounds and IFNγ or IL-27. On Day 8, tissue cultures and supernatants were collected for analysis. Supernatant samples were assayed for CXCL10 (IP-10) and CXCL9 (MIG) using luminex analysis (EMD Millipore). Data is expressed as % Inhibition +/−standard deviation (±STDV). Percent inhibition was determined by compound inhibitory potency against IFNγ or IL-27 induced CXCL10 or CXCL9 secretion compared to vehicle treated cells. Data is the average from 3 or 4 donors. […] The compound of example 2 was able to inhibit IFNγ induced CXCL9 secretion by 93%±13 (at 10 μM) and 24%±49 (at 1 μM) when compared to vehicle.
# [3] = biological target: Tyk2 (Homo sapiens (Human), UniProt P29597); assay: Biochemical JAK kinase assay (LanthaScreen), Tyk2; settings: converted from pIC50 with Cheng-Prusoff equation
# Procedure: (§1) Assay 1: Biochemical JAK Kinase Assays
# (§2) A panel of four LanthaScreen JAK biochemical assays (JAK1, 2, 3 and Tyk2) were carried in a common kinase reaction buffer (50 mM HEPES, pH 7.5, 0.01% Brij-35, 10 mM MgCl2, and 1 mM EGTA). Recombinant GST-tagged JAK enzymes and a GFP-tagged STAT1 peptide substrate were obtained from Life Technologies.
# (§3) Serially diluted compounds were pre-incubated with each of the four JAK enzymes and the substrate in white 384-well microplates (Corning) at ambient temperature for 1 h. ATP was subsequently added to initiate the kinase reactions in 10 μL total volume, with 1% DMSO. […] The plates were allowed to incubate at ambient temperature for 1 h before being read on the EnVision reader (Perkin Elmer).
# (§4) For dose-response analysis, percent inhibition data were plotted vs. compound concentrations, and IC50 values were determined from a 4-parameter robust fit model with the Prism software (GraphPad Software). Results were expressed as pIC50 (negative logarithm of IC50) and subsequently converted to pKi (negative logarithm of dissociation constant, Ki) using the Cheng-Prusoff equation.
# [4] = biological target: JAK2 (Homo sapiens (Human), UniProt O60674); assay: Biochemical JAK kinase assay (LanthaScreen), JAK2; settings: converted from pIC50 with Cheng-Prusoff equation
# Procedure: as §1, §2, §3, §4
# [5] = read-out: % inhibition of IL-27 induced CXCL9 secretion
# [6] = read-out: % inhibition of IL-27 induced CXCL10 secretion
# Tyk2, sequence (P29597 whole entry): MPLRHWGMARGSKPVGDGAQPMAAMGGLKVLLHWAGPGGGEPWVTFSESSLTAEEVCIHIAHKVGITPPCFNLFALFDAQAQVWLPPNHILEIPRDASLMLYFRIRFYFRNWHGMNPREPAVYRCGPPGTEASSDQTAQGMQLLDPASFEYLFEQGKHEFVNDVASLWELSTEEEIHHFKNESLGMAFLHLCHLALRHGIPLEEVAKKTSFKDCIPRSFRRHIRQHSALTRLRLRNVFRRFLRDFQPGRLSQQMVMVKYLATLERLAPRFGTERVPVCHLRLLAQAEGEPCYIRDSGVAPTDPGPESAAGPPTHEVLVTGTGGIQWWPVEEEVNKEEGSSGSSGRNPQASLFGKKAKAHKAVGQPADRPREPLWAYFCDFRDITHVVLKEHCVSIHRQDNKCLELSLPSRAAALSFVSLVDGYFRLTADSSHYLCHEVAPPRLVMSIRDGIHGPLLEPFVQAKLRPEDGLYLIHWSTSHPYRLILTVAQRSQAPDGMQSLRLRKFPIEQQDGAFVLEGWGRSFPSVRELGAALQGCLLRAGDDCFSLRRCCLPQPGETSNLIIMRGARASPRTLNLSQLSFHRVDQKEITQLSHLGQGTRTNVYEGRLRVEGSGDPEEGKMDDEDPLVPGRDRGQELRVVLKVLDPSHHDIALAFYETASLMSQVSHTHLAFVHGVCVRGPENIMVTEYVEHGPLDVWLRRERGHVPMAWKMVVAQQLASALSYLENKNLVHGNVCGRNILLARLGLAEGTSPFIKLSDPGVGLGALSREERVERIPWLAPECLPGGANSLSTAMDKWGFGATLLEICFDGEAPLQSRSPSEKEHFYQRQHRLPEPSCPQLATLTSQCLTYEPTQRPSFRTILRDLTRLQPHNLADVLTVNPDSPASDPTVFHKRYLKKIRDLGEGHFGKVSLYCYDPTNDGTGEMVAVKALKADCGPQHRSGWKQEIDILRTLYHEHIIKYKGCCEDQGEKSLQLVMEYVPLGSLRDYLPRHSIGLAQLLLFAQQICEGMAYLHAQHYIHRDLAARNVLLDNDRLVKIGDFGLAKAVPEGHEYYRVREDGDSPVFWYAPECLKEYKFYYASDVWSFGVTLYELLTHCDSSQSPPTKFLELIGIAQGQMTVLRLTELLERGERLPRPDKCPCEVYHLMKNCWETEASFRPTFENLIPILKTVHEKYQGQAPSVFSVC
# JAK2, sequence (O60674 whole entry): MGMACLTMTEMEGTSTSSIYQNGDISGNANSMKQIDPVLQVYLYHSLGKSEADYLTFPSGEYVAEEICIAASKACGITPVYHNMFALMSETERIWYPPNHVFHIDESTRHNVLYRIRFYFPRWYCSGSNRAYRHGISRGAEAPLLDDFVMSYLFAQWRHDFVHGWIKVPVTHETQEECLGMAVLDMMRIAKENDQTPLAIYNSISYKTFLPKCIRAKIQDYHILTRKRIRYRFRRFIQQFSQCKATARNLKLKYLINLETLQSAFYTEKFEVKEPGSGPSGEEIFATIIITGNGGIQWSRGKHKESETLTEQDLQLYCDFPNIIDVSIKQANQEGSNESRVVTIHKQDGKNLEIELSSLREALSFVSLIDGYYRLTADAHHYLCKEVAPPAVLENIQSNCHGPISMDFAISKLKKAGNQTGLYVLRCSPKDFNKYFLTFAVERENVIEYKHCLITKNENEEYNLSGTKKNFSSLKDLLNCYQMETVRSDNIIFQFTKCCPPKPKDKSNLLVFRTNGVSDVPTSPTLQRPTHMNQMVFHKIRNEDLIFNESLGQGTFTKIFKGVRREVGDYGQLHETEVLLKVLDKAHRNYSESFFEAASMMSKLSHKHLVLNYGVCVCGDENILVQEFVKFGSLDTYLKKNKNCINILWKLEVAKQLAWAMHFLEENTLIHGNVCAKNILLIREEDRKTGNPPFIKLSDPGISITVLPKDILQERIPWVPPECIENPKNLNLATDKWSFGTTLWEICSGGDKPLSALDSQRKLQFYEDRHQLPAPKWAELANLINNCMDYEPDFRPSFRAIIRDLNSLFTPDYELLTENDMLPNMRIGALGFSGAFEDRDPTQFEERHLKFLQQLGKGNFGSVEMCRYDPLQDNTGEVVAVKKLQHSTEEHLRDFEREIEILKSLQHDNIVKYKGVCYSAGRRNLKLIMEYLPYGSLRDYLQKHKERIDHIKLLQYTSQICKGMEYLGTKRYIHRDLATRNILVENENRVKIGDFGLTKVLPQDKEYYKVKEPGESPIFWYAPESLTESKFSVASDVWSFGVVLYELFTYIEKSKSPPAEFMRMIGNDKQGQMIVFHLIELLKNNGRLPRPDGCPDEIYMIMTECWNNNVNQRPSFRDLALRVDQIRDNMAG
compound,measurement,setting,value
"CCc1cc(O)c(F)cc1-c1ccc2c(-c3nc4c([nH]3)CN(C(C)C)[C@H](C(=O)N3CC(N(C)C)C3)C4)n[nH]c2c1 [Example 2, (S)-(3-(dimethylamino)azetidin-1-yl)(2-(6-(2-ethyl-5-fluoro-4-hydroxyphenyl)-1H-indazol-3-yl)-5-isopropyl-4,5,6,7-tetrahydro-3H-imidazo[4,5-c]pyridin-6-yl)methanone]",IC50,"[1]; in the presence of 10 pg/ml IL-5, 72 hours",25.1 nM
same,IC50,"[1]; in the presence of 1 ng/ml IL-5, 72 hours",631 nM
same,inhibition at 0.1 µM,[2]; [5],57%
same,inhibition at 0.1 µM,[2]; [6],69%
same,inhibition at 1 µM,[2]; [5],97%
same,inhibition at 1 µM,[2]; [6],101%
same,inhibition at 10 µM,[2]; [5],100%
same,inhibition at 10 µM,[2]; [6],108%
same,Ki,[3],0.32 nM
same,Ki,[4],0.02 nM
